Test results reported in PubChem BioAssay (NCI).
Several values for one entry are separate records, joined by “and”; a condition that tells them apart may be missing. Identical values can stand only once.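 Protocol summary: plate cells (96-well), add compound at 5 concentrations, incubate 48 h, interpolate endpoints linearly. GI50: concentration for 50% inhibition of growth. The concentration for full growth arrest is given as TGI.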

These molecules were tested on OVCAR-8 ovarian (assay: NCI-60 cell line screen, 48 h).
For `COc1ccc(NC(=O)CCc2cc(-c3ccc(O)c(OC)c3)nc(NC#N)n2)cc1`, the TGI was over 100 µM. With `O=C1c2ccccc2C2(Br)C(=O)c3ccccc3C12` (configuration not stated) the TGI was over 100 µM. For `COc1ccc(N(C)c2ncnc3occ(C)c23)cc1`, the GI50 was under 0.01 µM and the TGI was over 100 µM. `CCOC(=O)Oc1c(OC)cc(C(=O)NC2CCc3cc(OC)c(OC)c(OC)c3-c3ccc(SC)c(=O)cc32)cc1OC` (configuration not stated) gave a GI50 of 0.0155 µM and a TGI of 10.9 µM. `CC(=O)Nc1ccc(C(=O)NN2C(=O)C(Cl)C2c2ccccc2)cc1` (configuration not stated) was tested, and the TGI was over 100 µM. With `COC(=O)c1cc2c(cc1O)[C@@H](NC(C)=O)CCc1cc(OC)c(OC)c(OC)c1-2` the GI50 was 0.0404 µM. `CC(C)(C)OC(=O)NCC(=O)OCc1ccccc1` was tested, and the TGI was over 100 µM. `COCCOc1cc(F)c2c(Nc3ccc(NC(=O)Cn4cc(C(C)C)nn4)cc3)ncnc2c1` showed a GI50 of 37.4 µM and a TGI of over 100 µM. In the case of `Cc1ccc(SC(C)/C=C/NNC2=NC(c3ccccc3)C(c3ccccc3)=NN2)cc1` (configuration not stated), the TGI is reported as over 100 µM. Molecule `CC(C)(C)[SiH]12(OC(C(F)(F)F)(C(F)(F)F)c3ccccc31)OC(C(F)(F)F)(C(F)(F)F)c1ccccc12` has a TGI of 28.9 µM. `Cc1nnc(S(=O)(=O)c2ccc(N=Nc3c(N)nc(N)nc3N)cc2)s1` showed a TGI of over 100 µM. For `O=S(O)CCCCSSCC(O)C(O)CSSCCCCS(=O)O` (configuration not stated), the TGI was 96.5 µM and > 100 µM. `CNCCNc1c2c(c(NCCNC)c3c(CN(C)C)c[nH]c13)C(=O)c1ccccc1C2=O` gave a GI50 of 3.28 µM and a TGI of 13.6 µM. Work on `O=C1OC(c2ccccc2)=N/C1=C/C=C/c1ccco1` yielded a TGI of over 100 µM. `CC1OC2CC(=O)OC2C2=C1C(=O)c1c(O)cccc1C2=O` (configuration not stated) showed a GI50 of 0.0501 µM and a TGI of 0.36 µM. For `C/C1=C\CC[C@@]2(C)O[C@@H]2[C@H]2OC(=O)[C@@H](CN(C)C)[C@@H]2CC1`, the GI50 was 23.2 µM and the TGI was 52.8 µM. `C=C(C=O)C1CCC2(C(=O)O)CCC3(C)C(CCC4C5(C)CCC(O)C(C)(C)C5CCC43C)C12` (configuration not stated) was tested, and the GI50 was 4.09 µM and the TGI was 32.2 µM. For `Cc1ccc(S(=O)(=O)NCC2CCCCC2=O)cc1` (configuration not stated), the TGI was over 100 µM. `CCC[CH2][Sn]([CH2]CCC)([CH2]CCC)[O]C(=O)CC` gave a GI50 of 0.205 µM and a TGI of 0.444 µM. Work on `CNC(=S)NC1CCCCC1NC(=S)NC` (configuration not stated) yielded a TGI of over 100 µM. With `C=C(C)[C@@]12OC3(/C=C/C=C/CCCCC)O[C@@H]1[C@@H]1[C@@H]4O[C@]4(CO)[C@@H](O)[C@]4(O)C(=O)C(C)=C[C@H]4[C@@]1(O3)[C@H](C)[C@H]2OC(=O)c1ccccc1` the GI50 was 2.77 µM and the TGI was 7.08 µM. `C=CC1CC12C(=O)C1OC2(C)C2C(=O)c3cc4ccccc4cc3C(=O)C12` (configuration not stated) was tested, and the GI50 was 24.2 µM and the TGI was 92.3 µM.

The molecules below were run on RPMI-8226 leukemia (assay: NCI-60 cell line screen, 48 h).
With `O=[n+]1c2c(n([O-])c3ccccc31)CCCCCCCCCC2` the TGI was over 100 µM. `CNC(=S)N(C)C(=S)Nn1c(=O)c(C)nn(C)c1=S` gave a TGI of over 100 µM. In the case of `CCCCCCCCCC/C=C/CC(=O)SCCNC(=O)CCNC(=O)[C@@H](O)C(C)(C)COP(=O)(O)OP(=O)(O)OCC1OC(n2cnc3c(N)ncnc32)C(O)C1OP(=O)(O)O` (some centres not stated), the TGI is reported as over 10 µM. With `OCCN1CN(CCO)CN(c2nc(N3CN(CCO)CN(CCO)C3)nc(N3CN(CCO)CN(CCO)C3)n2)C1` the TGI was 0.63 ng/mL. `Cc1c2cccnc2c(C)c2c1c1cc(CO)ccc1n2C` was tested, and the GI50 was 2.09 µM and the TGI was 7.3 µM. Molecule `O=C1CN=C(C[N+](=O)[O-])c2ccccc21` has a TGI of over 100 µM. `CCCCN(CCCC)CC(C(=O)Nc1ccc([N+](=O)[O-])cc1[N+](=O)[O-])/C(C)=N\NC(=S)NN` (configuration not stated) was tested, and the TGI was over 100 µM. Molecule `CS(=O)(=O)N/N=C/CN1C(=O)c2ccccc2C1=O` has a TGI of over 100 µM. `Ic1ccc(Nc2nc3nonc3nc2Nc2ccc(I)cc2)cc1` was tested, and the GI50 was 0.107 µM and the TGI was 0.574 µM. In the case of `CCOC(=O)/C=C/C(C(=O)/C=C/c1ccc(OC2CCCCO2)c(OC)c1)=C(O)\C=C\c1ccc(OC2CCCCO2)c(OC)c1` (configuration not stated), the GI50 is reported as 4.13 µM and the TGI is reported as 17.8 µM. `COc1ccc(OC)c(NC(=O)C(=O)NNC(=O)c2sc(NNC(C)=O)nc2C)c1` gave a TGI of over 100 µM. With `O=[N+]([O-])c1nccn1CC(O)c1ccc(F)cc1` (configuration not stated) the TGI was over 100 µM. `O=C1c2ccccc2C2(Br)C(=O)c3ccccc3C12` (configuration not stated) was tested, and the TGI was over 100 µM. `COc1ccc(N(C)c2ncnc3occ(C)c23)cc1` showed a GI50 of under 0.01 µM and a TGI of under 0.01 µM. `COC(=O)c1cc2c(cc1O)[C@@H](NC(C)=O)CCc1cc(OC)c(OC)c(OC)c1-2` was tested, and the GI50 was 0.0524 µM and the TGI was over 100 µM.
